Results published in PubChem BioAssay AID1645864 (Buhrlage Lab, Dana-Farber Cancer Institute and Novartis …, 2021).
Calls of active or inactive are those of the source.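 Rule for the calls: active = maximal inhibition of USP17 at or above 30% in the confirmation dose-response, a value not among the printed readouts; inactive = the rest.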

Biological target: Ubiquitin carboxyl-terminal hydrolase 17-like protein 5 (Homo sapiens) (UniProt A8MUK1)
Experiment: ubiquitin-specific protease 17 DUB inhibitors, concentration-effect assay, cell-free, verification of initial screening actives (AID 1645864)
Details: purified USP17, ubiquitin-rhodamine cleavage fluorescence, 3 h

Ubiquitin carboxyl-terminal hydrolase 17-like protein 5 (Homo sapiens), sequence (A8MUK1 whole entry, looked up): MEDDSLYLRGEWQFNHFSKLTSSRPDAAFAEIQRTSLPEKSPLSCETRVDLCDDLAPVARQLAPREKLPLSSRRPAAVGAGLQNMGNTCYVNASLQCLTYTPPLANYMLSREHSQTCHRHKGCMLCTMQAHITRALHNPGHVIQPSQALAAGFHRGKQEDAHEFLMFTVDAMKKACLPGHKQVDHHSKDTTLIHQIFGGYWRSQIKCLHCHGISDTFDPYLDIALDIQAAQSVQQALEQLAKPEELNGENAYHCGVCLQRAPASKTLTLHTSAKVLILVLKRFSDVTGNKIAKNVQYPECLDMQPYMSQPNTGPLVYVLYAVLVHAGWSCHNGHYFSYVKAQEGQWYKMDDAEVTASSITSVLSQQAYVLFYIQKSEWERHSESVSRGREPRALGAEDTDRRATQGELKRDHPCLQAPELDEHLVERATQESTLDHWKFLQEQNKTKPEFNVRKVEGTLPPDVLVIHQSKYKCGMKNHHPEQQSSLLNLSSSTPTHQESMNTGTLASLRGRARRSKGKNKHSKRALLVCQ

SMILES | IC50
Cc1nc2cc(C(=O)NCCC3=CCCCC3)ccc2n1-c1cccc(F)c1 | > 50 µM (inactive)
CC(C)(C)c1ccc(Cn2nnc3c(=O)[nH]c(C4CCN(S(=O)(=O)c5ccc(S(=O)(=O)NC6CC6)cc5)CC4)nc32)cc1 | 39.3 µM
COc1cc(C2SCC(=O)Nc3c2c(-c2ccccc2)nn3-c2ccccc2)cc(OC)c1OC (stereo not given) | > 50 µM (inactive)
CO/C=C/C(=O)c1cc2cnc3c(=N)cc(NC(C)=O)c([nH]1)c23 | > 50 µM (inactive)
CN1CC2CN(C(=O)c3ccc(F)cc3)CCN2Cc2ccccc21 (stereo not given) | > 50 µM (inactive)
Cc1cc(NC(=O)c2[nH]nc3c2CCc2ccccc2-3)no1 | 3.28 µM
O=[N+]([O-])c1ccc(N2CCN(c3ncnc4c3[nH]c3ccc(F)cc34)CC2)cc1 | 0.247 µM
COc1ccc(NC(=O)Cn2c(CSc3ccc(C)cc3)nc3ccccc32)cc1 | 36 µM
COc1ccc(NC(=O)c2ccnc(Nc3ccc(OC)cc3)c2)cc1 | 42.4 µM
Cc1c(C(=O)c2ccccc2)c2ccccn2c1CCc1ccccn1 | > 50 µM (inactive)
CCOC(=O)[C@@H]1[C@@H](c2ccccc2)CN2CCN(C(=O)c3cnccn3)C[C@H]12 | > 50 µM (inactive)
O=C(Nc1ccc(F)cc1)Nc1ccccc1OCc1cc(=O)n2ccccc2n1 | 28.7 µM
O=C(c1ccsc1)N1CCC2(C1)Nc1cccnc1NC2=NC1CCCC1 (stereo not given) | > 50 µM (inactive)
Cn1c(=O)/c(=C/c2ccccc2)[nH]c(=O)/c1=C/c1ccccc1 | 5.8 µM
Cc1cc(C)c(NC(=O)Cn2c(=O)n(CCC(=O)NCc3ccc4c(c3)OCO4)c(=O)c3sccc32)c(C)c1 | 3.02 µM
COc1ccc(-c2cc(-c3nnc(CSc4nc5ccccc5n4C)o3)c3ccccc3n2)cc1OC | > 50 µM (inactive)
CCC(C)c1ccc(-c2csc(Cn3c(CN4CCN(C)CC4)nc4ccccc4c3=O)n2)cc1 (stereo not given) | 3.29 µM
O=C(Nc1ccccc1)c1ccc2c(c1)CC(c1ccccc1)OC2=O (stereo not given) | 16 µM
CCOc1ccccc1C(=O)Nc1ccc2c(c1)Sc1ncccc1C(=O)N2C | > 50 µM (inactive)
COc1ccc(OC)c(-n2c(SCC(=O)N3CCc4ccccc43)nnc2-c2cccc(S(=O)(=O)N(C)C)c2)c1 | 3.51 µM

SMILES | IC50
O=C(CCSc1ccc(Cl)cc1)c1cccs1 | 17.1 µM
CC(C)(C)C(=O)[C@@H]1[C@@H](C(=O)c2ccc3c(c2)OCO3)[C@@]2(C(=O)Nc3ccccc32)[C@H]2c3ccccc3C=CN12 | 31.3 µM
CC(=O)c1ccc(NC(=O)CC2C(=O)Nc3nc4ccccc4n32)cc1 (stereo not given) | 32.5 µM
O=C(NCCc1ccccc1F)c1cn2cc(Cl)ccc2n1 | 28.7 µM
Cc1cc(NC(=O)c2cc(-c3cccnc3)n[nH]2)ccc1Br | 1.95 µM
Cc1cc(CSc2ncccc2C(=O)Nc2ccnn2Cc2cccnc2)no1 | > 50 µM (inactive)
COc1ccc(-c2nc(C)c(C(=O)NCc3ccc(S(N)(=O)=O)cc3)s2)cc1 | > 50 µM (inactive)
CNc1nc2c(c(=O)n1Cc1ccccc1)CN(C(=O)c1ccc(CN)cc1)CC2 | 28.3 µM
Cc1ccccc1C(=O)NCCn1cc(SCC(=O)Nc2ccc3c(c2)OCCO3)c2ccccc21 | > 50 µM (inactive)
C=C(NC(=O)C(=C)NC(=O)c1csc(C2=N[C@@H]3c4csc(n4)[C@H]4NC(=O)c5csc(n5)[C@H]([C@](C)(O)[C@@H](C)O)NC(=O)[C@H]5CSC(=N5)/C(=C/C)NC(=O)C([C@@H](C)O)NC(=O)c5csc(n5)C3(CC2)NC(=O)[C@H](C)NC(=O)C(=C)NC(=O)[C@H](C)NC(=O)C([C@@H](C)CC)N[C@@H]2C=Cc3c(C(C)O)cc(nc3[C@H]2O)C(=O)OC4C)n1)C(N)=O (stereo not given in full) | > 50 µM (inactive)
COc1ccc(OCCn2c(C3CC(=O)N(c4cccc(C)c4)C3)nc3ccccc32)cc1 (stereo not given) | 0.391 µM
Cc1cc(N2CCOCC2)nc2ccc(NC(=O)CCC(=O)Nc3ccc(F)cc3)cc12 | 24.2 µM
O=C(Cn1c(=O)n(Cc2ccc(F)cc2)c(=O)c2ncccc21)Nc1ccccc1 | 45.2 µM
O=C(CCCn1c(=O)c2ccccc2n(CC(=O)NCc2ccccc2Cl)c1=O)NCc1ccc2c(c1)OCO2 | 2.2 µM
COc1ccc(/C=C/C(=O)Nc2cccc(S(=O)(=O)Nc3ccccc3Cl)c2)c(OC)c1 | 9.3 µM
CCc1ccc(C2c3c(oc4ccccc4c3=O)C(=O)N2c2nncs2)cc1 (stereo not given) | > 50 µM (inactive)
CCc1ccc(NC(=O)CN=C2NS(=O)(=O)C(c3ccc(CC)cc3)=C2C)cc1 | 32.5 µM
Cc1ccc(S(=O)(=O)N2CCC3(CC2)NC(=O)c2ccccc2N3)c(C)c1 | 17.9 µM
COc1ccc(-c2nc(Cn3nnc(C(=O)Nc4ccc(C)c(C)c4)c3N)c(C)o2)cc1 | 2.24 µM
CCc1ccc(OCc2nnc(SCC(=O)Nc3ccccc3OC)n2Cc2ccccc2)cc1 | > 50 µM (inactive)

SMILES | IC50
Cc1cccc(CNC(=O)C2CCCN(S(=O)(=O)Cc3ccc(F)cc3)C2)c1 (stereo not given) | 19.1 µM
CCOc1ccc(NC(=O)COc2cccc3c2CCN(CC)C3=O)cc1 | > 50 µM (inactive)
CCC(=O)Nc1nc2cc(NC(=O)Nc3cc(C)cc(C)c3)ccc2s1 | 3.21 µM
COc1ccc(-c2cc3nc([C@H](C)NC(=O)Cc4ccccc4C)nn3cn2)cc1 | 2.38 µM
COc1ccc(CNC(=O)CCc2nnc3n(Cc4ccccc4Cl)c(=O)c4ccccc4n23)cc1 | 2.65 µM
Cc1oc(C2CC2)cc1C(=O)N1CCC2(CC1)CC1(CO2)Nc2ccccc2-n2cccc21 (stereo not given) | > 50 µM (inactive)
Cc1nnc(NC(=O)C2CCN(c3ccc(S(N)(=O)=O)cc3[N+](=O)[O-])CC2)o1 | 29.5 µM
COc1cccc(NC(=O)c2ccc3noc(-c4ccc(Cl)cc4)c3c2)c1 | 37.4 µM
COc1cccc(CNC(=O)c2ccc3c(c2)NC(=O)C2CCCN32)c1OC (stereo not given) | > 50 µM (inactive)
Cc1ccc2c(c1)-c1c(c(C(=O)N3CCN(c4ccccc4)CC3)nn1C)CS2 | > 50 µM (inactive)
Cc1cc(C)nc(-n2nc(C)c3c2NC(=O)CSC3c2ccc(F)cc2F)n1 (stereo not given) | 37.5 µM
O=C(COc1cccc(-n2cnnn2)c1)Nc1ccc2c(c1)OCCO2 | > 50 µM (inactive)
COc1cnc(CSc2ncccn2)cc1OCC(=O)Nc1cc(C)ccc1C | > 50 µM (inactive)
c1ccc(-c2nc(-c3nnn(-c4ccccc4)c3-c3ccncc3)no2)cc1 | 3.91 µM
Cc1ccccc1-c1nnc(-c2ccc(C(=O)NCc3ccccc3F)cc2)o1 | 5.8 µM
CCCC(=O)Nc1ccc(SCc2nnc(-c3ccccc3)o2)cc1 | > 50 µM (inactive)
O=C(CNC(=O)c1cc2ccccc2o1)Nc1ccc2c(c1)OCCO2 | 46 µM
O=C1CC(NS(=O)(=O)c2ccc3ccccc3c2)CN1c1cccc(F)c1 (stereo not given) | 47.6 µM
O=C(COC(=O)Cn1cnc2ccccc21)Nc1ccc2c(c1)OCCO2 | > 50 µM (inactive)

Other lines, results leading:

IC50 | SMILES
28.2 µM | COc1cccc(N2CCN(c3ccc4nnc(CCC(=O)N5CCc6ccccc6C5)n4n3)CC2)c1
> 50 µM (inactive) | CC1CCc2c(sc3nc(CC#N)[nH]c(=O)c23)C1 (stereo not given)
0.262 µM | COc1ccc(OC)c(NC(=O)Cn2c(=O)n(CC3CCC(C(=O)NCCc4ccccc4)CC3)c(=O)c3ccccc32)c1 (stereo not given)
26.9 µM | CCn1c(=O)c(=O)[nH]c2cc(C(=O)Nc3cccc(-c4csc(C)n4)c3)ccc21
34 µM | CC(C)CCN1C(=O)C2C(C(=O)Nc3ccc(Oc4ccccc4)cc3)C3C=CC2(O3)C1C(=O)NC1CCCCC1 (stereo not given)
10.6 µM | NC(=O)c1nnn(-c2ccc(NC(=O)c3ccc(F)c(F)c3)cc2)n1
> 50 µM (inactive) | COc1ccccc1NC(=O)CSC1=NC2(CCCCC2)Nc2ccccc21
> 50 µM (inactive) | Cc1ccc(Nc2nc(Nc3cccc(Cl)c3)nc3nccnc23)cc1
> 50 µM (inactive) | CC1CCN(S(=O)(=O)c2ccc3[nH]cc(C(=O)NCc4ccco4)c(=O)c3c2)CC1
> 50 µM (inactive) | O=C(Nc1ccc(-c2nnc3n2CCCCC3)cc1)c1ccc2c(c1)OCO2
30.5 µM | O=C(CCc1c[nH]c2ccccc12)Nc1ccc(N2CCOCC2)cc1
> 50 µM (inactive) | COc1cccc2cccc(O)c12
2.53 µM | COc1ccc(OC)c(NC(=O)c2cc(Cl)ccc2OC)c1
1.46 µM | Oc1sc(C=Nc2cc(Cl)ccc2Cl)c2ccccc12
> 50 µM (inactive) | CCn1c(CN2CCCC(c3nc(-c4cccnc4)n[nH]3)C2)nc2ccccc21 (stereo not given)
18.1 µM | Cc1cccc(NC(=O)CSc2nnc(-c3n[nH]c4c3CCC4)n2N)c1C
30.6 µM | CC(=O)c1ccc(NC(=O)c2ccc(N3CCCCS3(=O)=O)cc2Cl)cc1
> 50 µM (inactive) | Cc1cc(C#N)c2c(C)ccc(C(C)C)cc1-2

IC50 | SMILES
27.9 µM | O=C(Cn1cnc2ccccc21)Nc1ccc2c(c1)CCC2
5.8 µM | Cc1cccc(NC(=O)Cn2c(=O)n(Cc3ccc(F)cc3)c(=O)c3sccc32)c1
> 50 µM (inactive) | CCN1C(SCc2ccccc2F)=NS(=O)(=O)c2ccccc21
29.8 µM | Cc1ccc(S(=O)(=O)N2CCC3(CC2)NC(=O)c2ccccc2N3)cc1C
15.9 µM | O=C(Cc1cc(-c2ccc(F)cc2)on1)NCc1ccccc1
9.01 µM | Cc1cc(N2CCC(NC(=O)NCc3ccc(F)cc3)C2=O)ccc1F (stereo not given)
> 50 µM (inactive) | COc1ccc(C(=O)N2CCCC3(C2)Nc2cccnc2NC3=NC2CCCC2)cn1 (stereo not given)
> 50 µM (inactive) | Cc1ccc(-c2ncc(C(=O)NCc3cccc(C)c3)c(-c3ccncc3)n2)cc1
30.1 µM | O=C(Nc1oc2ccccc2c(=O)c1-c1ccc2c(c1)OCO2)C1CCCCC1
> 50 µM (inactive) | Fc1ccc(Nc2nc(Nc3cccc(F)c3)nc3nccnc23)cc1
> 50 µM (inactive) | CC1Cc2ccccc2N1C(=O)Cn1c(=O)cc(O)c2ccccc21 (stereo not given)
> 50 µM (inactive) | O=S1(=O)CCN(Cc2cccnc2)c2c(F)nc(N3CCOCC3)c(F)c21
6.1 µM | O=C1C(O)=C(c2ccc(O)cc2)C(=O)C(O)=C1c1ccccc1
> 50 µM (inactive) | COc1ccc(-c2nonc2NC(=O)C(c2ccccc2)c2ccccc2)cc1OC
24.6 µM | Nc1ccc(NC(=O)c2cc3c(s2)CCC3)cc1[N+](=O)[O-]
15.1 µM | O=C(C(c1ccccc1)c1ccccc1)N1CCC(c2nc3c(nnn3Cc3c(F)cccc3Cl)c(=O)[nH]2)CC1
> 5 µM (inactive) | O=C(NCc1nc(-c2ccc3c(c2)[nH]c(=O)n3C2CCCC2)no1)c1ccccc1
16.9 µM | O=C(Cn1c(=O)n(-c2ccccc2)c(=O)c2ccc(C(=O)NCc3ccc4c(c3)OCO4)cc21)NCCC1=CCCCC1
